Results: publication PMC4331264 (Biochimica et biophysica acta, 2015)
Like-named read-outs stand apart in the source and are kept apart here.

Columns and labels:
Ste2p [1] = conditions: cited from earlier work
[2] = system: Ste2p-FT-HT signalling in LM102 cells (FUS1-lacZ); experiment: FUS1-lacZ reporter gene assay; type: cell-based, Saccharomyces cerevisiae; conditions: for FUS1-lacZ reporter gene activity of peptide alone: peptide alone (30 μM), absence of α-factor; for increase in FUS1-lacZ reporter gene activity over α-factor alone: α-factor 50 nM plus peptide 30 μM, 90 min, 30°C, mean of three determinations
Ste2p [3] = conditions: cited from earlier work; remark: listed apart in the source
[4] = system: Saccharomyces cerevisiae LM102 cells expressing Ste2p-FT-HT; experiment: Growth arrest; type: cell-based; conditions: for growth arrest activity of peptide alone: peptide alone 15 μg/disk, no α-factor; for halo (zone of growth inhibition) area on co-spotting with α-factor: α-factor 0.1 μg/disk plus peptide 15 μg/disk, three replicates; for halo area in presence of novobiocin: novobiocin 2.2 mg/4.5 ml Noble agar-cell mixture
Ste2p-FT-HT [5] = biological target: T1, Ste2p-FT-HT (Saccharomyces cerevisiae, UniProt D6VTK4, C252S/C59S); type: binding; conditions: [Bio-DOPA]11-mer 85 μM
Ste2p-FT-HT [6] = biological target: T1, Ste2p-FT-HT; type: binding; conditions: [3H]α-factor 5 nM; novobiocin 10^−4 M to 10^−11 M; 30 min on ice
Ste2p-FT-HT [7] = biological target: T1, Ste2p-FT-HT; type: binding; conditions: read-out: cross-linking of [Bio-DOPA]13-mer, % of control, novobiocin 5 mM, [Bio-DOPA]13-mer 10 μM

T1 sequence (D6VTK4 whole entry C59S/C252S): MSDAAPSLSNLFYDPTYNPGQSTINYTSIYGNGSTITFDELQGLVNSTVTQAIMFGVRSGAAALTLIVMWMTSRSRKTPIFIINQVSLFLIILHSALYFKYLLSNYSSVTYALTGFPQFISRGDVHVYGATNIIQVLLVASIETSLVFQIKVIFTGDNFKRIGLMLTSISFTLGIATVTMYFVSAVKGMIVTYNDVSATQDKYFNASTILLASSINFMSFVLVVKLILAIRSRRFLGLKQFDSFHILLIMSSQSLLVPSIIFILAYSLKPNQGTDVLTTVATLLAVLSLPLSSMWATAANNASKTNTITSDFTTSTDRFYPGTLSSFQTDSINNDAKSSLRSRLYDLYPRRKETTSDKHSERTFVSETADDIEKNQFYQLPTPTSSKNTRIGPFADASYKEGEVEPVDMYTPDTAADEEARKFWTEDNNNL

Molecule: WHWLQLKPGQP [11-mer]
- competition for binding with α-factor (Ste2p [1]): did not compete for binding with α-factor
- influence on affinity of the receptor for α-factor (Ste2p [1]; wild-type yeast strain): did not influence the affinity of the receptor for the ligand
- FUS1-lacZ reporter gene activity of peptide alone [2]: did not stimulate reporter gene activity over control levels
- increase in FUS1-lacZ reporter gene activity over α-factor alone [2]: 2.5 fold
- innate biological activity (Ste2p [3]; wild-type yeast strain): no innate biological activity
- agonist activity in supersensitive mutant (Ste2p [3]; yeast mutant supersensitive to the ligand): very weak agonist
- growth arrest activity of peptide alone [4]: no biological activity
- halo (zone of growth inhibition) area on co-spotting with α-factor [4]: 382 ± 36 mm^2

Molecule: [DOPA^1, K^7 (BiotinACA)] α-factor [[Bio-DOPA]13-mer]
- biological activity (Ste2p [3]; binds the orthosteric site of the receptor): retains biological activity

Molecule: CO[C@@H]1[C@@H](OC(N)=O)[C@@H](O)[C@H](Oc2ccc3c(O)c(NC(=O)c4ccc(O)c(CC=C(C)C)c4)c(=O)oc3c2C)OC1(C)C [novobiocin]
- FUS1-lacZ response to novobiocin in presence of α-factor ([2]; 25 nM α-factor, repeated three times): dose-dependent increase in activity up to 12.5 μM
- FUS1-lacZ reporter gene activity, novobiocin by itself ([2]; no α-factor, concentrations up to 37.5 μM): failed to increase reporter gene activity
- FUS1-lacZ reporter gene activity, novobiocin by itself, higher amounts ([2]; no α-factor, up to 400 μM, data not shown): failed to stimulate reporter gene activity
- maximal inhibition of [Bio-DOPA]11-mer cross-linking (Ste2p-FT-HT [5]; between 10 and 50 mM novobiocin, Fig. 6): ~ 90%
- remaining activity at 5000 µM (Ste2p-FT-HT [5]; read-out: labeling (cross-linking of [Bio-DOPA]11-mer), % of control level, novobiocin 5 mM, average over 3 replicate blots): 26%
- competition with [3H]α-factor for binding to Ste2p-FT-HT (Ste2p-FT-HT [6]): did not prevent α-factor binding to the receptor
- agonistic activity in growth arrest assays (Ste2p [3]; S. cerevisiae strain supersensitive to α-factor): weak agonistic activity
- intrinsic agonistic activity in growth arrest assay ([4]; novobiocin by itself, up to 2.2 mg/disk): no measurable, intrinsic agonistic activity
- increase of halo area in presence of novobiocin, without paper disk ([4]; α-factor 10 ng spotted directly onto lawn containing novobiocin 2.2 mg/lawn): 45%
- halo area in presence of novobiocin ([4]; α-factor 0.1 μg/disk): 155 ± 24 mm^2
- halo area in presence of novobiocin ([4]; α-factor 0.2 μg/disk): 273 ± 14 mm^2
- remaining activity at 5000 µM (Ste2p-FT-HT [7]; average over 3 replicate blots): 118%
- remaining activity at 5000 µM (Ste2p-FT-HT [7]; blot in Fig. 5): 136%

Molecule: DOPA-HWLQLK(BiotinACA)PGQP [[Bio-DOPA]11-mer, [DOPA^1, K^7 (BiotinACA),desM^12desY^13] α-factor]
- FUS1-lacZ reporter gene activity of peptide alone [2]: no intrinsic biological activity
- increase in FUS1-lacZ reporter gene activity over α-factor alone [2]: approximately 2 fold
- growth arrest activity of peptide alone [4]: no intrinsic biological activity
- halo (zone of growth inhibition) area on co-spotting with α-factor [4]: 309 ± 27 mm^2
